# Read-outs that look alike come from different tables or passages of the source.
# Columns and labels:
# [1] = target: T1, ERα (Homo sapiens, UniProt P03372); assay: Estrogen receptor competition binding assay (SPA, [3H]Estradiol), ERα
# T1 construct: GST (N); made in house; host or cells: E. coli BL21(DE3)pLysS
# T1 sequence (P03372 311-547 limits assumed): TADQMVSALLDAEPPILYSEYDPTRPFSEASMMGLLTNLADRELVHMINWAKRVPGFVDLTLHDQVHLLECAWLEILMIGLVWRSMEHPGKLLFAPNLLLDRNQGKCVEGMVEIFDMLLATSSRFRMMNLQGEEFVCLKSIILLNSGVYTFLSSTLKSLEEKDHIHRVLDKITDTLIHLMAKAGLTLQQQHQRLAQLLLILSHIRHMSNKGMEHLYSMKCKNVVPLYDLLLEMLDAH
# Experimental: (§1) The ligand binding domain of both ERα and ERβ were subcloned into pGEX-2T vector which had been modified to contain KpnI and BamHI restriction sites in the multiple cloning region. GST-hERα and GST-hERβ proteins were made by transforming BL21(DE3)pLYS S competent cells with the appropriate expression plasmid. […] The cells were collected by centrifugation and resuspended in lysis buffer (50 mM Tris pH 7.9; 250 mM KCl; 1% Triton X-100; 10 mM DTT; 1 mM PMSF). The lysate was then placed on dry ice until completely frozen. […] The supernatant was retained and glycerol was added to a final concentration of 10%. The protein content of the supernatant was quantitated using the BioRad Protein Assay Reagent The protein was then stored at −80° C. until used in the binding assay.
# (§2) Polylysine coated Yttrium Silicate SPA beads (Amersham #RPNQ 0010) are resuspended in assay buffer [10 mM potassium phosphate buffer pH 7.0 containing 2 mM EDTA, 50 mM NaCl, 1 mM DTT, 2 mM CHAPS, 10% glycerol] to a concentration of 1 g/60 ml. […] [2, 4, 6, 7, 16, 17-3H(N)]-Estradiol is added as a 30 ul aliquot to give a final assay concentration of 1 nM. […] The plates are shaken vigorously for two hours then counted on a Packard TopCount using the protocol for counting tritium yttrium silicate SPA beads. Data analysis was done by standard methods. % Bound was calculated for each concentration of each test compound using the equation % Bound=100*((Test−NS)/(T−NS)). % Bound was plotted vs concentration and curve fitting was accomplished using non-linear regression.
# [2] = target: T2, ERβ (Homo sapiens, UniProt Q92731); assay: Estrogen receptor competition binding assay (SPA, [3H]Estradiol), ERβ
# T2 construct: GST (N); made in house; host or cells: E. coli BL21(DE3)pLysS
# Experimental: as §1, §2
# [3] = competition binding assay, GST-hERα ligand binding domain, 1 nM [3H]Estradiol, (n) = number of determinations, read-out: Avg. ER α pKi (n) (converted)
# T2 sequence (Q92731 264-498 limits assumed): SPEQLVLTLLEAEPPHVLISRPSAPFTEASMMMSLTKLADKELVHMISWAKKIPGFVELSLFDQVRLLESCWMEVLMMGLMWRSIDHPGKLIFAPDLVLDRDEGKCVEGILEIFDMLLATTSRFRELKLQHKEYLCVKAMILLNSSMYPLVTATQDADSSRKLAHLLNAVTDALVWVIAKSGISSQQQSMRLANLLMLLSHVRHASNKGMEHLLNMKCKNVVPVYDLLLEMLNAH
"Ki [1, 3]",Ki [2],Ki [1],SMILES
355 nM,20 nM,–,"CN(C)C(=O)CCN1CCN(c2nc(NCCc3ccc(O)cc3)nc(N(C)CCCc3ccc(Cl)cc3)n2)CC1 [Example 9, 3-[4-(4-[[3-(4-chlorophenyl)propyl](methyl)amino]-6-{[2-(4-hydroxyphenyl)ethyl]amino}-1,3,5-triazin-2-yl)-1-piperazinyl]-N,N-dimethylpropanamide]"
550 nM,85.1 nM,–,"CN(CCCc1ccc(C(F)(F)F)cc1)c1nc(N(C)CCc2ccc(O)cc2)nc(N2CCNCC2)n1 [Example 22, 4-(2-{methyl[4-(methyl{3-[4-(trifluoromethyl)phenyl]propyl}amino)-6-(1-piperazinyl)-1,3,5-triazin-2-yl]amino}ethyl)phenol]"
214 nM,23.4 nM,–,"CN(CCCc1ccc(F)c(F)c1)c1nc(N(C)CCc2ccc(O)cc2)nc(N2CCNCC2)n1 [Example 21, 4-(2-{[4-[[3-(3,4-difluorophenyl)propyl](methyl)amino]-6-(1-piperazinyl)-1,3,5-triazin-2-yl]methylamino}ethyl)phenol]"
–,31.6 nM,–,"CN(CCCc1ccc(Cl)cc1)c1nc(NCCc2ccc(O)cc2)nc(N2CCN(Cc3cccnc3)CC2)n1 [Example 6, 4-[2-({4-[[3-(4-chlorophenyl)propyl](methyl)amino]-6-[4-(3-pyridinylmethyl)-1-piperazinyl]-1,3,5-triazin-2-yl}amino)ethyl]phenol]"
–,14.8 nM,339 nM,"CN(CCCc1ccc(Cl)cc1)c1nc(NCCc2ccc(O)cc2)nc(N2CCN(CCO)CC2)n1 [Example 24, 4-[2-({4-[[3-(4-chlorophenyl)propyl](methyl)amino]-6-[4-(2-hydroxyethyl)-1-piperazinyl]-1,3,5-triazin-2-yl}amino)ethyl]phenol]"
603 nM,28.8 nM,–,CN(CCCc1ccc(Cl)cc1)c1nc(N(C)CCc2ccc(O)cc2)nc(N2CCN(CCO)CC2)n1 [Example 17]
501 nM,33.1 nM,–,"CN(CCCc1ccc(Cl)cc1Cl)c1nc(N(C)CCc2ccc(O)cc2)nc(N2CCNCC2)n1 [Example 23, 4-(2-{[4-[[3-(2,4-dichlorophenyl)propyl](methyl)amino]-6-(1-piperazinyl)-1,3,5-triazin-2-yl]methylamino}ethyl)phenol]"
562 nM,26.3 nM,–,"CN(CCCc1ccc(Cl)cc1)c1nc(N(C)CCc2ccc(O)cc2)nc(N2CCNCC2)n1 [Example 14, 4-{2-[[4-[[3-(4-chlorophenyl)propyl](methyl)amino]-6-(1-piperazinyl)-1,3,5-triazin-2-yl](methyl)amino]ethy}phenol]"
562 nM,23.4 nM,–,"CN1CCN(c2nc(N(C)CCCc3ccc(F)cc3)nc(N(C)CCc3ccc(O)cc3)n2)CC1 [Example 20, 4-(2-{[4-[[3-(4-fluorophenyl)propyl](methyl)amino]-6-(4-methyl-1-piperazinyl)-1,3,5-triazin-2-yl]methylamino}ethyl)phenol]"
1780 nM,95.5 nM,–,"COc1cccc(C(=O)N2CCN(c3nc(NCCc4ccc(O)cc4)nc(N(C)CCCc4ccc(Cl)cc4)n3)CC2)c1 [Example 3, 4-[2-({4-[[3-(4-chlorophenyl)propyl](methyl)amino]-6-[4-(3-methoxybenzoyl)-1-piperazinyl]-1,3,5-triazin-2-yl}amino)ethyl]phenol]"
–,38 nM,–,"CN(CCCc1ccc(Cl)cc1)c1nc(NCCc2ccc(O)cc2)nc(N2CCN(Cc3ccccn3)CC2)n1 [Example 5, 4-[2-({4-[[3-(4-chlorophenyl)propyl](methyl)amino]-6-[4-(2-pyridinylmethyl)-1-piperazinyl]-1,3,5-triazin-2-yl}amino)ethyl]phenol]"
372 nM,15.8 nM,–,"CN(CCCc1ccc(F)cc1)c1nc(NCCc2ccc(O)cc2)nc(N2CCNCC2)n1 [Example 18, 4-(2-{[4-[[3-(4-fluorophenyl)propyl](methyl)amino]-6-(1-piperazinyl)-1,3,5-triazin-2-yl]amino}ethyl)phenol]"
339 nM,10.5 nM,–,"CN(CCCc1ccc(Cl)cc1)c1nc(NCCc2ccc(O)cc2)nc(N2CCNCC2)n1 [Example 1, 4-(2-{[4-[[3-(4-chlorophenyl)propyl](methyl)amino]-6-(1-piperazinyl)-1,3,5-triazin-2-yl]amino}ethyl)phenol]"
4370 nM,155 nM,–,"CN(CCCc1ccc(Cl)cc1)c1nc(NCCc2ccc(O)cc2)nc(N2CCN(C(=O)c3ccccn3)CC2)n1 [Example 4, 4-[2-({4-[[3-(4-chlorophenyl)propyl](methyl)amino]-6-[4-(2-pyridinylcarbonyl)-1-piperazinyl]-1,3,5-triazin-2-yl}amino)ethyl]phenol]"
1580 nM,83.2 nM,–,"CN(CCCc1ccc(Cl)cc1)c1nc(NCCc2ccc(O)cc2)nc(N2CCN(/C(=C/C(=O)c3ccccc3)C(F)(F)F)CC2)n1 [Example 8, (2E)-3-[4-(4-[[3-(4-chlorophenyl)propyl](methyl)amino]-6-{[2-(4-hydroxyphenyl)ethyl]amino}-1,3,5-triazin-2-yl)-1-piperazinyl]-4,4,4-trifluoro-1-phenyl-2-buten-1-one]"
–,22.9 nM,–,"C=CCN1CCN(c2nc(NCCc3ccc(O)cc3)nc(N(C)CCCc3ccc(Cl)cc3)n2)CC1 [Example 12, 4-[2-({4-(4-ally-1-piperazinyl)-6-[[3-(4-chlorophenyl)propy](methyl)amino]-1,3,5-triazin-2-yl}amino)ethyl]phenol]"
550 nM,24.5 nM,–,"CN(CCCc1ccc(F)cc1)c1nc(N(C)CCc2ccc(O)cc2)nc(N2CCNCC2)n1 [Example 19, 4-(2-{[4-[[3-(4-fluorophenyl)propyl](methyl)amino]-6-(1-piperazinyl)-1,3,5-triazin-2-yl]methylamino}ethyl)phenol]"
380 nM,13.2 nM,–,"CN1CCN(c2nc(N(C)CCCc3ccc(Cl)cc3)nc(N(C)CCc3ccc(O)cc3)n2)CC1 [Example 15, 4-(2-{[4-[[3-(4-chlorophenyl)propyl](methyl)amino]-6-(4-methyl-1-piperazinyl)-1,3,5-triazin-2-yl](methyl)amino}ethyl)phenol]"
229 nM,11 nM,–,"C[C@@H]1CN(c2nc(N(C)CCCc3ccc(Cl)cc3)nc(N(C)CCc3ccc(O)cc3)n2)C[C@H](C)N1 [Example 16, 4-(2-{[4-[[3-(4-chlorophenyl)propyl](methyl)amino]-6-(3,5-cis-dimethyl-1-piperazinyl)-1,3,5-triazin-2-yl](methyl)amino}ethyl)phenol]"
141 nM,10 nM,–,"CN(CCCc1ccc(Cl)cc1)c1nc(NCCc2ccc(O)cc2)nc(N2CCN(C/C=C/c3ccccc3)CC2)n1 [Example 13, 4-{2-[(4-[[3-(4-chlorophenyl)propyl](methyl)amino]-6-{4-[(2E)-3-phenyl-2-propenyl]-1-piperazinyl}-1,3,5-triazin-2-yl)amino]ethyl]phenol]"
398 nM,63.1 nM,–,"CN1CCN(c2nc(NC3CCc4cc(O)ccc4C3)nc(SCCCc3ccccc3)n2)CC1 (stereo not shown) [Example 10, 6-({4-(4-methyl-1-piperazinyl)-6-[(3-phenylpropyl)sulfanyl]-1,3,5-triazin-2-yl}amino)-5,6,7,8-tetrahydro-2-naphthalenol]"
–,18.6 nM,–,"Cc1nc(CN2CCN(c3nc(NCCc4ccc(O)cc4)nc(N(C)CCCc4ccc(Cl)cc4)n3)CC2)cs1 [Example 7, 4-{2-[(4-[[3-(4-chlorophenyl)propyl](methyl)amino]-6-{4-[(2-methyl-1,3-thiazol-4-yl)methyl]-1-piperazinyl}-1,3,5-triazin-2-yl)amino]ethyl}phenol]"
